Laboratory results as given in PMC7011973 (Journal of Enzyme Inhibition and Medicinal Chemistry, 2017).

Experiments:
BsuCA1 (BsCA1) = format: biochemical, Brucella suis; settings: read-out: KI (nM) ^* / BsuCA1^b
BsuCA2 (BsCA2) = format: biochemical, Brucella suis; settings: read-out: KI (nM) ^* / BsuCA2^b

Compound	Ki (BsuCA1 (BsCA1))	Ki (BsuCA2 (BsCA2))
NS(=O)(=O)c1cnccc1N1CCC(Cc2ccccc2)CC1 [compound 12, 12]	40 nM	–
Cc1cc(C)n(-c2ccncc2S(N)(=O)=O)n1 [compound 13, 13]	38 nM	780 nM
NS(=O)(=O)c1cnccc1N1CCN(Cc2ccc3c(c2)OCO3)CC1 [compound 11, 11]	36 nM	336 nM
CCc1cc(CC)n(-c2ccncc2S(N)(=O)=O)n1 [compound 17, 17]	–	420 nM
CCOC(=O)CCc1c(C)nn(-c2ccncc2S(N)(=O)=O)c1C [compound 16, 16]	41 nM	706 nM
CCCCc1c(C)nn(-c2ccncc2S(N)(=O)=O)c1C [compound 15, 15]	47 nM	–
NS(=O)(=O)c1cnccc1N1CCN(Cc2ccccc2)CC1 [compound 10, 10]	34 nM	97 nM
Cc1nn(-c2ccncc2S(N)(=O)=O)c(C)c1C [compound 14, 14]	45 nM	–
